In patent US20170058314A1, “NOVEL METHODOLOGY FOR IDENTIFYING ANTI-PERSISTER ACTIVITY AND ANTIMICROBIAL SUSCEPTIBILITY FOR BORRELIA BURGDORFERI AND OTHER BACTERIA” (priority 2014, published 2017):

Columns and labels:
[1] = tested on: stationary phase B. burgdorferi persisters (strain B31); assay: SYBR Green I/PI viability assay (plate reader), FDA-approved drug library screen; conditions: for Ratio of Green/Red fluorescence, Primary screening / Ratio of Green/Red fluorescence, Rescreening (first column) / Ratio of Green/Red fluorescence, Rescreening (second column): 7 days, stationary phase; for viability at 50 µM: Borreliella burgdorferi, 168 h, read-out: Residual viable cells (regression equation, SYBR Green I/PI assay); for activity against stationary phase B. burgdorferi (words; SYBR Green I/PI assay): FDA drug screen
[2] = tested on: round body form of B. burgdorferi; assay: SYBR Green I/PI assay on amoxicillin-induced round body form; conditions: for viability at 50 µM: Borreliella burgdorferi, 168 h, read-out: Residual viable cells (SYBR Green I/PI assay); for Ratios of green/red fluorescence, Primary screening / Ratios of green/red fluorescence, Rescreening (first column) / Ratios of green/red fluorescence, Rescreening (second column): round body form, 50 μM, 7 days

Compound	Ratio of Green/Red fluorescence, Primary screening ([1]; 50 μM)	Ratio of Green/Red fluorescence, Rescreening (first column) ([1]; 50 μM)	Ratio of Green/Red fluorescence, Rescreening (second column) ([1]; 50 μM)	viability at 50 µM [1] [%]	viability at 50 µM [2] [%]	Ratios of green/red fluorescence, Primary screening [2]	Ratios of green/red fluorescence, Rescreening (first column) [2]	Ratios of green/red fluorescence, Rescreening (second column) [2]	activity against stationary phase B. burgdorferi (words; SYBR Green I/PI assay) [1]	Residual viable cells (regression equation, SYBR Green I/PI assay) ([1]; 50 μM, 7-day old stationary phase cells treated for 7 days) [%]
Collistin	7.15	7.26	7.23							
CO/N=C(\C(=O)N[C@@H]1C(=O)N2C(C(=O)O)=CCS[C@H]12)c1csc(N)n1 [Ceftizoxime]	6.94	6.83	7.03	49						
C[C@H]1[C@H](NC(=O)/C(=N\OC(C)(C)C(=O)O)c2csc(N)n2)C(=O)N1S(=O)(=O)O [Aztreonam]					34	6.16	6.38	6.33		
COc1ccc(NS(=O)(=O)c2ccc(N)cc2)nn1 [Sulfamethoxypyridazine]					30	6.20	6.07	6.34		
COc1cnc(NS(=O)(=O)c2ccc(N)cc2)nc1 [Sulfameter]	7.13	7.46	6.98	54					effective	
C[C@@H]1O[C@@H]1P(=O)(O)O [Fosfomycin]					31	6.39	6.12	6.16		
CC(C)(O/N=C(\C(=O)N[C@@H]1C(=O)N2C(C(=O)[O-])=C(C[n+]3ccccc3)CS[C@H]12)c1csc(N)n1)C(=O)O [Ceftazidime]					34	6.20	6.34	6.37		
Cc1noc(NS(=O)(=O)c2ccc(N)cc2)c1C [Sulfisoxazole]					33	6.53	6.15	6.18	effective	
O=C(O)C1=C(CSc2nnnn2CS(=O)(=O)O)CS[C@@H]2[C@H](NC(=O)[C@H](O)c3ccccc3)C(=O)N12 [Cefonicid]	6.86	7.54	6.07	46						
CN(C)[C@@H]1C(O)=C(C(N)=O)C(=O)[C@@]2(O)C(O)=C3C(=O)c4c(O)ccc(Cl)c4[C@@](C)(O)[C@H]3C[C@@H]12 [Chlortetracycline]					31	6.20	6.36	6.18		
C[C@@H]1[C@H](O)[C@@H](C)/C=C/C=C/C=C/C=C/C=C/C=C/C=C/[C@H](O[C@@H]2O[C@H](C)[C@@H](O)[C@H](N)[C@@H]2O)C[C@@H]2O[C@](O)(C[C@@H](O)C[C@@H](O)[C@H](O)CC[C@@H](O)C[C@@H](O)CC(=O)O[C@H]1C)C[C@H](O)[C@H]2C(=O)O [Amphotericin B]	7.14	6.88	6.87							50
CN(C)[C@@H]1C(O)=C(C(=O)NCN2CCCC2)C(=O)[C@@]2(O)C(O)=C3C(=O)c4c(O)cccc4[C@@](C)(O)[C@H]3C[C@@H]12 [Rolitetracycline]					35	6.23	6.35	6.37		
O=[N+]([O-])c1ccc(/C=N/O)o1 [Nifuroxime]					30	6.10	6.32	6.22		
CO/N=C(\C(=O)N[C@@H]1C(=O)N2C(C(=O)O)=C(CSc3nnnn3C)CS[C@H]12)c1csc(N)n1 [Cefmenoxime]	6.82	7.59	6.32	48	32	6.18	6.33	6.28		
C=CC1=C(C(=O)O)N2C(=O)[C@@H](NC(=O)/C(=N\O)c3csc(N)n3)[C@H]2SC1 [Cefdinir]	6.88	7.51	6.29	48						
CCN(CC)Cc1cc(Nc2ccnc3cc(Cl)ccc23)ccc1O [Amodiaquin]	6.79	6.44	6.85	45						
CO/N=C(\C(=O)N[C@@H]1C(=O)N2C(C(=O)[O-])=C(C[N+]3(C)CCCC3)CS[C@H]12)c1csc(N)n1 [Cefepime]	6.67	7.16	6.45	44						
